Measured values reported in patent publication US20170253601A1, “Substituted Pyrrolidine Compounds” (EPIZYME, INC., priority 2014, published 2017).

Each molecule was assayed against T1, SMYD2 (Homo sapiens, UniProt Q9NRG4) (assay: SMYD2 Biochemical Assay (3H-SAM, biotinylated peptide substrate, Flashplate)). Details: Table 1; average of n = 1 to n = 50; read-out: SMYD2 Biochem IC50.
T1 construct: Full length SMYD2 (NP 064582.2) was cloned; His6 (N, cleaved yes); FLAG (N); made in house; host or cells: Sf9 insect cells
T1 sequence (Q9NRG4 whole entry): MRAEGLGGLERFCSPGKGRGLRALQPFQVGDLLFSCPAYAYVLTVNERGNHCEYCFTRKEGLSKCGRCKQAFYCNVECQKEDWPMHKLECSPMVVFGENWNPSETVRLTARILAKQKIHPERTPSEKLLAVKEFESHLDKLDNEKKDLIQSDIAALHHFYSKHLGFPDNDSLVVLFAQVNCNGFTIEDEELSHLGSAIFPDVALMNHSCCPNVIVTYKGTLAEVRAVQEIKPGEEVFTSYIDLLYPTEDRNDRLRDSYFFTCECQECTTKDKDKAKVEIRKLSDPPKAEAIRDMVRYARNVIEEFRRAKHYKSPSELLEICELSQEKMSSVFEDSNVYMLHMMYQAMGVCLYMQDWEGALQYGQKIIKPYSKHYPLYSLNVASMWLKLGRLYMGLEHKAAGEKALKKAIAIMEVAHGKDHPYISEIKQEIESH
In short: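 Methyltransferase activity tracked as 3H transfer from 10 nM 3H-SAM to 60 nM biotinylated peptide, counted after streptavidin Flashplate capture and normalised to DMSO and 1000 uM SAH controls. Enzyme: 1.5 nM full-length Sf9-expressed SMYD2, 30 min compound pre-incubation at room temperature, in Bicine pH 7.6 buffer with 2% DMSO; reactions quenched with 600 uM unlabelled SAM; IC50 from 3- or 4-parameter fit.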

`CN1C[C@H](NC(=O)c2cc(C3CC3)on2)[C@H](c2ccccc2)C1` (racemic) [compound 17, (±)-cis-5-cyclopropyl-N-((1-methyl-4-phenylpyrrolidin-3-yl)isoxazole-3-carboxamide] and `CN1C[C@H](NC(=O)c2cc(C3CC3)on2)[C@@H](c2ccccc2)C1` (racemic) [compound 18, (±)-trans-5-cyclopropyl-N-(1-methyl-4-phenylpyrrolidin-3-yl)isoxazole-3-carboxamide] cannot be ordered by IC50: greater than 50 µM for the first, greater than 50 µM for the second.

`C[C@@H]1C[C@H](NC(=O)c2cc(C3CC3)on2)C(=O)N1c1cnn(C)c1` (racemic) [compound 19, (±)-cis-5-cyclopropyl-N-(5-methyl-1-(1-methyl-1H-pyrazol-4-yl)-2-oxopyrrolidin-3-yl)isoxazole-3-carboxamide] and `C[C@H]1C[C@H](NC(=O)c2cc(C3CC3)on2)C(=O)N1c1cnn(C)c1` (racemic) [compound 20, (±)-trans 5-cyclopropyl-N-(5-methyl-1-(1-methyl-1H-pyrazol-4-yl)-2-oxopyrrolidin-3-yl)isoxazole-3-carboxamide] cannot be ordered by IC50: greater than 50 µM for the first, greater than 50 µM for the second.

`CC(=O)Nc1ccc(S(=O)(=O)N2CC[C@H](NC(=O)c3cc(C4CC4)on3)C2)cc1` [compound 1, (S)-N-(1-((4-acetamido-phenyl)sulfonyl)pyrrolidin-3-yl)-5-cyclopropyl-isoxazole-3-carboxamide] and `CC(=O)Nc1ccc(S(=O)(=O)N2CC[C@@H](NC(=O)c3cc(C4CC4)on3)C2)cc1` [compound 2, (R)-N-(1-((4-acetamido-phenyl)sulfonyl)pyrrolidin-3-yl)-5-cyclopropyl-isoxazole-3-carboxamide] cannot be ordered by IC50: greater than 50 µM for the first, greater than 50 µM for the second.

Going from `O=C(N[C@H]1CCNC1)c1cc(C2CC2)on1` [compound 3, (S)-5-cyclopropyl-N-(pyrrolidin-3-yl)isoxazole-3-carboxamide] to `O=C(N[C@@H]1CCNC1)c1cc(C2CC2)on1` [compound 4, (R)-5-cyclopropyl-N-(pyrrolidin-3-yl)isoxazole-3-carboxamide], the IC50 rises from 48.6 µM to greater than 50 µM.

`CN1CCC(NC(=O)c2cc(C3CC3)on2)C1c1ccccc1` (centres unmarked) [compound 5, 5-cyclopropyl-N-(1-methyl-2-phenyl-pyrrolidin-3-yl)isoxazole-3-carboxamide] and `CN1CCC(NC(=O)c2cc(C3CC3)on2)C1c1ccc(F)cc1` (centres unmarked) [compound 13, 5-cyclopropyl-N-(2-(4-fluorophenyl)-1-methylpyrrolidin-3-yl)isoxazole-3-carboxamide] cannot be ordered by IC50: greater than 50 µM for the first, greater than 50 µM for the second.

`Cc1cc(N2CCC(NC(=O)c3cc(C4CC4)on3)C2=O)n(C)n1` (centres unmarked) [compound 6, 5-cyclopropyl-N-(1-(1,3-dimethyl-1H-pyrazol-5-yl)-2-oxopyrrolidin-3-yl)isoxazole-3-carboxamide] and `Cn1ccc(N2CCC(NC(=O)c3cc(C4CC4)on3)C2=O)n1` (centres unmarked) [compound 15, 5-cyclopropyl-N-(1-(1-methyl-1H-pyrazol-3-yl)-2-oxopyrrolidin-3-yl)isoxazole-3-carboxamide] cannot be ordered by IC50: greater than 50 µM for the first, greater than 50 µM for the second.

`CN1CCC(NC(=O)c2cc(C3CC3)on2)C1c1ccc(Cl)c(F)c1` (centres unmarked) [compound 7, N-(2-(4-chloro-3-fluorophenyl)-1-methylpyrrolidin-3-yl)-5-cyclo-propylisoxazole-3-carboxamide] and `CN1CCC(NC(=O)c2cc(C3CC3)on2)C1c1ccc(F)c(F)c1` (centres unmarked) [compound 9, 5-cyclopropyl-N-(2-(3,4-difluorophenyl)-1-methylpyrrolidin-3-yl)isoxazole-3-carboxamide] cannot be ordered by IC50: greater than 50 µM for the first, greater than 50 µM for the second.

`O=C(NC1CCN(C2CC2)C1c1ccc(F)c(F)c1)c1cc(C2CC2)on1` (centres unmarked) [compound 8, 5-cyclopropyl-N-(1-cyclopropyl-2-(3,4-difluoro-phenyl)pyrrolidin-3-yl)isoxazole-3-carboxamide] and `CC(C)N1CCC(NC(=O)c2cc(C3CC3)on2)C1c1ccc(F)c(F)c1` (centres unmarked) [compound 12, 5-cyclopropyl-N-(2-(3,4-difluorophenyl)-1-isopropylpyrrolidin-3-yl)isoxazole-3-carboxamide] cannot be ordered by IC50: greater than 50 µM for the first, greater than 50 µM for the second.

Compared with `CC1CC(NC(=O)c2cc(C3CC3)on2)CN1c1ccccc1` (centres unmarked) [compound 10, 5-cyclopropyl-N-(5-methyl-1-phenylpyrrolidin-3-yl)isoxazole-3-carboxamide], `CC1CC(NC(=O)c2cc(C3CC3)on2)CN1Cc1ccccc1` (centres unmarked) [compound 21, N-(1-benzyl-5-methylpyrrolidin-3-yl)-5-cyclopropyl-isoxazole-3-carboxamide] is lower in IC50: greater than 50 µM for the first, 44.5 µM for the second.

`CC1CC(NC(=O)c2cc(C3CC3)on2)C(=O)N1c1ccccc1` (centres unmarked) [compound 11, 5-cyclopropyl-N-(5-methyl-2-oxo-1-phenylpyrrolidin-3-yl)isoxazole-3-carboxamide] and `O=C(NC1CCN(c2ccccc2)C1=O)c1cc(C2CC2)on1` (centres unmarked) [compound 28, 5-cyclopropyl-N-(2-oxo-1-phenyl-pyrrolidin-3-yl)isoxazole-3-carboxamide] cannot be ordered by IC50: greater than 50 µM for the first, greater than 50 µM for the second.

`CN1C(=O)CC(NC(=O)c2cc(C3CC3)on2)C1c1ccc(F)cc1` (centres unmarked) [compound 14, 5-cyclopropyl-N-(2-(4-fluorophenyl)-1-methyl-5-oxopyrrolidin-3-yl)isoxazole-3-carboxamide] and `O=C(NC1CC(=O)N(c2ccccc2)C1)c1cc(C2CC2)on1` (centres unmarked) [compound 25, 5-cyclopropyl-N-(5-oxo-1-phenylpyrrolidin-3-yl)isoxazole-3-carboxamide] cannot be ordered by IC50: greater than 50 µM for the first, greater than 50 µM for the second.

`COc1cccc(C2C(NC(=O)c3cc(C4CC4)on3)CCN2C2CC2)c1` (centres unmarked) [compound 16, 5-cyclopropyl-N-(1-cyclopropyl-2-(3-methoxy-phenyl)pyrrolidin-3-yl)isoxazole-3-carboxamide] and `CC1CC(NC(=O)c2cc(C3CC3)on2)CN1C1CC1` (centres unmarked) [compound 22, 5-cyclopropyl-N-(1-cyclopropyl-5-methylpyrrolidin-3-yl)isoxazole-3-carboxamide] cannot be ordered by IC50: greater than 50 µM for the first, greater than 50 µM for the second.

Going from `CC1CN(C2CC2)CC1NC(=O)c1cc(C2CC2)on1` (centres unmarked) [compound 23, 5-cyclopropyl-N-(1-cyclopropyl-4-methylpyrrolidin-3-yl)isoxazole-3-carboxamide] to `CN1CCC(NC(=O)c2cc(C3CC3)on2)C1` (centres unmarked) [compound 29, 5-cyclopropyl-N-(1-methylpyrrolidin-3-yl)isoxazole-3-carboxamide], the IC50 rises from 5.18 µM to greater than 50 µM. The first is the more potent here.

`CC(c1ccccc1)N1CCC(NC(=O)c2cc(C3CC3)on2)C1` (centres unmarked) [compound 24, 5-cyclopropyl-N-(1-(1-phenylethyl)pyrrolidin-3-yl)isoxazole-3-carboxamide] and `O=C(NC1CC(=O)N(Cc2ccccc2)C1)c1cc(C2CC2)on1` (centres unmarked) [compound 26, N-(1-benzyl-5-oxopyrrolidin-3-yl)-5-cyclopropylisoxazole-3-carboxamide] cannot be ordered by IC50: greater than 50 µM for the first, greater than 50 µM for the second.

`O=C(NC1CCN(Cc2ccccc2)C1=O)c1cc(C2CC2)on1` (centres unmarked) [compound 27, N-(1-benzyl-2-oxopyrrolidin-3-yl)-5-cyclopropylisoxazole-3-carboxamide] and `NCCCC(=O)N1CC[C@@H](NC(=O)c2cc(C3CC3)on2)C1` [compound 30, (R)-N-(1-(4-amino-butanoyl)pyrrolidin-3-yl)-5-cyclopropyl-isoxazole-3-carboxamide] cannot be ordered by IC50: greater than 50 µM for the first, greater than 50 µM for the second.

`N[C@H]1CC[C@H](C(=O)N2CC[C@@H](NC(=O)c3cc(C4CC4)on3)C2)CC1` [compound 31, N-((R)-1-((1r,4r)-4-aminocyclohexane-1-carbonyl)pyrrolidin-3-yl)-5-cyclopropyl-isoxazole-3-carboxamide] and `N[C@H]1CC[C@H](C(=O)N2CC[C@H](NC(=O)c3cc(C4CC4)on3)C2)CC1` [compound 33, N-((S)-1-((1r,4s)-4-aminocyclohexane-1-carbonyl)pyrrolidin-3-yl)-5-cyclopropyl-isoxazole-3-carboxamide] cannot be ordered by IC50: greater than 50 µM for the first, greater than 50 µM for the second.

`NCCCC(=O)N1CC[C@H](NC(=O)c2cc(C3CC3)on2)C1` [compound 32, (S)-N-(1-(4-amino-butanoyl)pyrrolidin-3-yl)-5-cyclopropyl-isoxazole-3-carboxamide] and `NCCCS(=O)(=O)N1CC[C@@H](NC(=O)c2cc(C3CC3)on2)C1` [compound 34, (R)-N-(1-((3-amino-propyl)sulfonyl)pyrrolidin-3-yl)-5-cyclopropyl-isoxazole-3-carboxamide] cannot be ordered by IC50: greater than 50 µM for the first, greater than 50 µM for the second.

In the case of `NCCCS(=O)(=O)N1CC[C@H](NC(=O)c2cc(C3CC3)on2)C1` [compound 35, (S)-N-(1-((3-amino-propyl)sulfonyl)pyrrolidin-3-yl)-5-cyclopropyl-isoxazole-3-carboxamide], the IC50 is reported as greater than 50 µM.
